According to article PMC7118210 (Frontiers in Pharmacology, 2020):
Where two headings read alike, the source gives them in different places.

Columns and labels:
[1] = set-up: method as in Liu M. et al., 2012; details: dogs; ref Liu M. et al., 2012; cited from earlier work
[2] = Single-dose pharmacokinetics in rats (plasma, UHPLC/MS/MS); type: in vivo, Sprague Dawley rats; details: for Cmax: read-out: Cmax
Description: Sixty healthy adult Sprague Dawley rats (180-220 g, half male and female) were purchased from the Guangdong Medical Laboratory Animal Center (Guangzhou, Guangdong, China). Thirty Beagle dogs (10-14 kg, half male and female) were purchased from the […] Laboratory Animal Science & Technology Co., Ltd. (Gaoyao, Guangdong, China). All animals were housed under humanized conditions with free access to food and water, and acclimated to the living conditions for at least one week prior to experimentation at the Laboratory Animal Center of the School of Life Sciences, Sun Yat-sen University. Environmental conditions were maintained at 20°C-25°C, 55% ± 15% relative humidity, 12-h light/dark cycles, and 12 air changes per hour. Prior to experimentation, the animals were fasted overnight with water available ad libitum. All animals were healthy based on physical examination and laboratory analyses performed before and after the experiments. At the end of the experiments, the dogs were returned to the Laboratory Animal Center of School of Life Sciences, Sun Yat-sen University. […] All blood samples were transferred into heparin-treated centrifuge tubes and centrifuged for 10 min at 4,000 rpm and 4°C. All human urine samples were mixed and transferred (4 ml) into storage tubes. All biological samples were stored at -80°C. […] The optimal volume and activity in unit volume of enzyme solution [0.2 M acetic acid/water solution: 0.2 M ammonium acetate/water solution, 15:35 (v/v)] were determined through a pretest of the enzyme (rat plasma, 10 μl, 10 U μl^-1; dog plasma, 10 μl, 10 U μl^-1; human plasma, 20 μl, 20 U μl^-1; human urine, 10 μl, 10 U μl^-1). After enzyme incubation, 10 μl of IS solution was added to the plasma and urine samples (2 μg ml^-1 quercetin 3-β-D-glucoside for rat and dog plasma; 583 ng ml^-1 naringin-D4 and 160 ng ml^-1 naringenin-D4 for human plasma; and 9,710 ng ml^-1 naringin-D4 and 6,000 ng ml^-1 naringenin-D4 for human urine). To each fecal sample, 9-fold methanol-normal saline (2:1, v/v) was added, mixed (18,000 rpm, 15 min) by vortexing and centrifuged (10 min, 9,000 rpm, 4°C). Next, 10 μl IS solution (971 ng ml^-1 naringin-D4 and 600 ng ml^-1 naringenin-D4) was added to the supernatants of feces (200 μl) without enzyme incubation. […] The solid material was dissolved with acetonitrile-water (1:1, v/v) and injected into the ultra high-performance liquid chromatography coupled with triple quadrupole mass spectrometry (UHPLC/MS/MS) system as described below. The analysis of nonclinical and clinical samples was performed with a UHPLC/MS/MS system that consisted of a Shimadzu Nexera X2 ultra high-performance liquid chromatography (UHPLC) (Shimadzu Corp., Kyoto, Japan) coupled with an AB Sciex API4000 triple-quadrupole mass spectrometry (MS/MS) system (AB Sciex, Foster City, CA, USA) equipped with an electrospray ionization source and controlled by Analyst (v. 1.6.2) software. […] The injection volume was 10 μl with the flow rate of 0.3 ml min^-1 for plasma, and 0.4 ml min^-1 for urine and feces. The compounds were detected by multiple reaction monitoring in the negative ion electrospray mode. The electrospray source conditions were as follows: ion source gas1 30 psi, ion source gas2 60 psi, curtain gas 20 psi, collisionally activated dissociation (CAD) gas 8 psi, temperature 500°C, and ion spray voltage -4,500 V. Zero air was used for ion source gas1 and ion source gas2 and nitrogen for curtain gas and CAD gas. […] All pharmacokinetic and excretion parameters were expressed as mean ± standard deviation (SD). All mean and SD values were reported to three significant figures. The pharmacokinetic parameters were calculated using the Phoenix WinNonlin software (Version 6.4, Pharsight Corp., Cary, NC, USA) and compared using the Student's t-test (p < 0.05) in SPSS 18.0 (SPSS Inc., Chicago, IL, USA). […]

[3] = both sexes, Sprague Dawley, rat, plasma, iv, 42 mg/kg
[4] = female, Sprague Dawley, rat, plasma, iv, 42 mg/kg
[5] = male, Sprague Dawley, rat, plasma, iv, 42 mg/kg
[6] = naringenin after naringin 168 mg kg^-1 p.o. single dose, rat

AUC(0-inf) [2, 3]: 2390 ± 1110 ng·h/mL
AUC(0-t) [2, 3]: 2360 ± 1120 ng·h/mL
Tmax [2, 3]: 2.4 ± 1.26 min
clearance [2, 3]: 390 mL/min/kg
half-life [2, 3]: 147 ± 82.8 min
Cmax [2, 3]: 3980 ± 2510 ng/mL
MRT last ([2]; both sexes, Sprague Dawley, rat, plasma, iv, 42 mg/kg, read-out: MRT0-t): 3.36 ± 2.11 h
MRT inf ([2]; both sexes, Sprague Dawley, rat, plasma, iv, 42 mg/kg, read-out: MRT0-∞): 3.66 ± 2.14 h
Vd ([2]; both sexes, Sprague Dawley, rat, plasma, iv, 42 mg/kg, read-out: Vd): 88.3 ± 113 L/kg
half-life ([2]; both sexes, Sprague Dawley, rat, plasma, oral, naringenin in rats, studies overall): 139 ± 72.6 min
Tmax [2, 4]: 2.58 ± 1.5 min
half-life [2, 4]: 175 ± 112 min
Cmax [2, 4]: 2430 ± 1550 ng/mL
AUC(0-inf) [2, 5]: 3010 ± 982 ng·h/mL
AUC(0-t) [2, 5]: 2990 ± 986 ng·h/mL
Cmax [2, 5]: 5540 ± 2400 ng/mL
CL [2, 6]: 19.6 ± 17.3 L/h/kg
Vd [2, 6]: 93.4 ± 121 L/kg
lag-time in plasma ([2]; rats, after p.o. naringin): 0.701 ± 0.523 h
time for concentrations to increase to Cmax after the lag-time ([2]; rats, after p.o. naringin): 2.93 ± 2.01 h
SMILES: O=C1C[C@@H](c2ccc(O)cc2)Oc2cc(O)cc(O)c21 [naringenin, Naringenin]
time within which excreted [1]: ≤ 24 h
